One data set has as its system activated lymphocytes. Nature of the data set: Cellular content/efflux of TH9402 by flow cytometry, activated lymphocytes. The class given is cell-based, human. The settings on record: 10 μM TH9402, wash with 1 μg/ml cyclosporin-A, 110 minutes. As for the experimental part: TH9402 cellular content in resting and activated lymphocytes was evaluated by flow-cytometry, since the intensity of TH9402 (green) fluorescence correlates with the cellular content in TH9402. Briefly, 10^6 cells/ml, previously activated or not with PHA, were incubated in X-vivo-5 medium supplemented with 2.5% human AB serum and 10 μM TH9402 for 40 minutes. These cells were washed two times with X-vivo medium supplemented with 10% AB serum and cells analysed by flow cytometry 30, 50, 70, 90 and 110 min after the end of the TH9402 incorporation period. […] Since cellular concentration of TH9402 correlates with the extent of cell elimination, the high concentration of TH9402 maintained in activated lymphocytes explains their sensitivity to photodynamic therapy. In contrast, the rapid efflux of TH9402 from resting lymphocytes should explain preservation of their proliferative activity.
In order to identify the mechanism responsible for the differential retention of TH9402 between activated and resting lymphocytes, cyclosporin-A was used to block the multidrug transporter (P-gp 170). These cells were incubated with 10 μM TH9402 for 8 minutes, and washed with medium containing 1 μg/ml cyclosporin-A or medium alone. TH9402 retention was subsequently evaluated by flow-cytometry (green fluorescence) (FIG. 5). […]

Data set [1] relates to PHA-activated PB mononuclear cells. Nature of the data set: Phototoxicity against PHA-activated PB mononuclear cells (mixed lymphocyte reaction, 3H-thymidine; cell counts). The class given is cell-based, human. As for the experimental part:
Suspensions of cells were then incubated with 10 μM TH9402 for 40 minutes at 37° C. Cells were treated at 1×10^6 cells/mL in X-vivo-15 medium without phenol red (BioWhittaker, Walkersville, Md., USA) supplemented with 2,5% FBS. At the end of the incubation period, cells were spun down and the cell pellet resuspended in the X-vivo culture medium in the absence of dye, supplemented with 10% FBS. Cells were then placed in T-flasks (Corning, Cambridge, Mass., USA) for 90 minutes at 37° C. […]
Normal PBMC were activated by incubation at 37° C. for 48 to 72 hours in X-vivo-15 medium (Biowhittaker, Walkersville. Md. U.S.A.) supplemented with 20% AB serum (Sigma), 1% pen-strep (Gibco), 2% glutamin (Gibco) and 20 μg/ml of phytohemagglutinin-A (PHA-P)(Sigma). […] Following incubation, cells were washed and treated with the TH9402 photodynamic treatment as described above, and proliferative activity measured as described below.
The latter cells were serially diluted in order to obtain effector (treated cells) to target ratios ranging from 2:1 to 1:4 (4×10^4 treated effector cells/well) and incubated at 37° C. for 5 days. […] Radioactivity in the cell harvest was counted using a liquid scintillation counter (Beckman, Chicago, Ill., USA).
The phototoxicity of TH9402 against PHA-activated PB mononuclear cells was assessed after photodynamic treatment using 5 and 7.5 joules/cm^2 of light energy (FIG. 2). […]

The test system of data set [2] is K562 chronic myelogeneous leukemia cell line. Nature of the data set: Phototoxicity of TH9402, limiting dilution assay of clonogenic cells, K562 admixed with irradiated PBMC. The settings on record: 10 μM TH9402 40 min, 90 min dye-free, 5 joules/cm^2, LDA 12-14 days. The class given is cell-based. As for the experimental part:
T cells represent the most important population of immune cells present in the peripheral blood. […] Phototoxicity was also evaluated in parallel against the chronic myelogenous leukemia cell line K562, that had been used in U.S. Pat. Nos. 5,556,992 and 5,773,460. The CEM T cell acute lymphoblastic leukemia cell line and K562 chronic myelogeneous leukemia cell line (Lozzio, B. B. and Lozzio, C. B. (1979) Cancer Res., 3(6): 363-370) were obtained from the American Type Culture Collection (ATCC, 12301 Parklawn Drive, Rockville, Md. 20852 USA) under the accession number CCL-119 and CCL-243. Cultures were maintained at 37° C. in a humidified incubator with an atmosphere of 95% air and 5% CO2. […] Before each experiment, cell viability was assessed by trypan blue exclusion. […]
To assess the photochemotherapeutic potential and the in vitro phototoxicity of 4,5-dibromorhodamine 123 hydrobromide (TH9402), the T cell line CEM and the leukemic line K562 admixed with normal irradiated PBMC were incubated with TH9402 and exposed to 5 joules/cm^2 of light (as described above). […] Growth at each serial dilution was assessed in an “all-or-nothing” (positive or negative) fashion under an inverted phase microscope. […]

Molecules are shown by their SMILES.

`Br.COC(=O)c1ccccc1-c1c2ccc(=N)c(Br)c-2oc2c(Br)c(N)ccc12` [TH9402, 4,5-dibromorhodamine 123 (2-(4,5-dibromo-6-amino-3-imino-3H-xanthen-9-yl)-benzoic acid methyl ester) hydrobromide]: in the data set with activated lymphocytes, the “fluorescence intensity in activated cells treated or not treated with cyclosporin A” value is recorded as “identical”. Moreover, the “reactivity towards MHC incompatible cells (proliferation in mixed lymphocyte culture)” value in data set [1] (PHA-activated cells treated with TH9402, 5 and 7.5 J/cm^2) was “abrogated”. Besides, the “decrease of cell counts of the treated cells in comparison to the medium control” value in data set [1] (three days after the photodynamic treatment) is given as above 90%. The “K562 cells escaping elimination by phototherapy in comparison to the media only sample” value in data set [2] is “less than 0.1%”.
